From patent US9434724B2, “Quinuclidines for modulating alpha 7 activity” (priority 2014, dated 2016) come the findings set out here.

Structures are written as SMILES.

The target in this assay is rat brain nicotinic receptor (α7 NAChR) (Rattus norvegicus (Rat), UniProt Q05941). Format: binding.
rat brain nicotinic receptor (α7 NAChR), sequence (Q05941 23-502 limits assumed): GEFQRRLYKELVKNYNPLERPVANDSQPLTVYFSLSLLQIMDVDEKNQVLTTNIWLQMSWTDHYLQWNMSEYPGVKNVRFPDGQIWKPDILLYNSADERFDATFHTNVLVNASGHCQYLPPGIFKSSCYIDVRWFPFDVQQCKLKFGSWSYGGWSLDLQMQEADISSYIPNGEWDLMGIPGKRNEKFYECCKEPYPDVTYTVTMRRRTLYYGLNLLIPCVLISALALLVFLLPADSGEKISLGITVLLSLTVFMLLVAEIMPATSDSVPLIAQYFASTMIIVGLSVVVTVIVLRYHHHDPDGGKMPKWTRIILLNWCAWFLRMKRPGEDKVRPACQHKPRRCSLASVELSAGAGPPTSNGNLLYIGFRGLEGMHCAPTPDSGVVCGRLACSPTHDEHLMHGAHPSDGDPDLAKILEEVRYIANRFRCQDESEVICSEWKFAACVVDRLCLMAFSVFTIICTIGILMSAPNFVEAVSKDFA

As for `Cc1cc2c(C(=O)OCC34CCN(CC3)CC4)c[nH]c2cc1F` [Compound 58, quinuclidin-4-ylmethyl 6-fluoro-5-methyl-1H-indole-3-carboxylate], the IC50 came out at 1810 nM and the Ki was found to be 1550 nM.

A word on the IC50: it is the point on the concentration scale where inhibition reaches its midpoint. Low values mean greater potency, high ones weaker potency. What is called Ki is the equilibrium dissociation constant of an inhibitor or competing ligand from its target. A high value points to a looser hold on the target.
